The assay addresses T1, NS5B from the BK strain (genotype 1b) (Hepatitis C virus genotype 1b, UniProt P26663).
T1 construct: NS5B from the BK strain (genotype 1b) is expressed in E. coli as a protein in which the 21 C-terminal amino acids are replaced; made in house; host or cells: E. coli
The experiment in a line: Hepatitis C polymerase inhibition, NS5B BK strain, 33P-GTP filter assay. Particulars: Table 1A; for inhibition at 20 µM: 20 μM compound, read-out: HCV pol % inh at 20 μM; for IC50: NS5B BK strain, read-out: HCV pol BK IC50. In kind it is biochemical. A digest of the protocol: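 Radiolabelled RNA synthesis was measured by filter capture and scintillation counting after EDTA stop. His-tagged, C-terminally truncated (Δ21) genotype 1b BK NS5B from E. coli, pre-exposed to compound for 15 min, copied a self-primed RNA template (~3 nM) with α-[33P]-GTP for 2 h at room temperature.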

T1 sequence (P26663 2420-2989): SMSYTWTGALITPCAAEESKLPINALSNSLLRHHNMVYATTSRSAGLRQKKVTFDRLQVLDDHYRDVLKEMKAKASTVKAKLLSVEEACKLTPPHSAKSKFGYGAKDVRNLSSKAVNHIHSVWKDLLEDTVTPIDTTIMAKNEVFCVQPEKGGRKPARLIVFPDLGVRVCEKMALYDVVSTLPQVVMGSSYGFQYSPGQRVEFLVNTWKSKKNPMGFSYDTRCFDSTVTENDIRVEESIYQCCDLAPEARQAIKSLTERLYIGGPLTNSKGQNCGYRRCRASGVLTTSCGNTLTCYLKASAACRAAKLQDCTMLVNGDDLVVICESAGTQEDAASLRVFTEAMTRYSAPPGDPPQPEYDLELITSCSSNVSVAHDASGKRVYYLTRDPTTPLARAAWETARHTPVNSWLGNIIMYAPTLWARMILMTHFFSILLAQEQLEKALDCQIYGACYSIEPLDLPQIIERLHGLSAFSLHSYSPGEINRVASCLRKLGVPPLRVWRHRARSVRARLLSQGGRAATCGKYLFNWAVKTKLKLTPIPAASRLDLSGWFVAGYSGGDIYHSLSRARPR

In general, IC50 refers to the concentration that inhibits the measured activity by half. Take `CCC1(CC(=O)O)OCCc2c1[nH]c1c(F)cc(C)c(Br)c21` (centres unmarked) [Example 164, (5-bromo-1-ethyl-8-fluoro-6-methyl-1,3,4,9-tetrahydropyrano[3,4-b]indol-1-yl)acetic acid]: the inhibition at 20 µM worked out at 77% and the IC50 came to 2 µM.

Consider `CCCC1(CC(=O)O)OCCc2c1[nH]c1c(F)cc(C)c(Br)c21` (centres unmarked) [Example 165, (5-bromo-8-fluoro-6-methyl-1-propyl-1,3,4,9-tetrahydropyrano[3,4-b]indol-1-yl)acetic acid], for which the inhibition at 20 µM was found to be 89% and the IC50 is 0.6 µM.

As for `Cc1cc(F)c2[nH]c3c(c2c1Br)CCOC3(CC(=O)O)C(C)C` (centres unmarked) [Example 166, (5-bromo-8-fluoro-1-isopropyl-6-methyl-1,3,4,9-tetrahydropyrano[3,4-b]indol-1-yl)acetic acid], the inhibition at 20 µM amounted to 55% and the IC50 was determined as 3.7 µM.

Regarding `CCCCC1(CC(=O)O)OCCc2c1[nH]c1c(F)cc(C)c(Br)c21` (centres unmarked) [Example 167, (5-bromo-1-butyl-8-fluoro-6-methyl-1,3,4,9-tetrahydropyrano[3,4-b]indol-1-yl)acetic acid], the inhibition at 20 µM was 80% and the IC50 amounted to 3 µM.

For `Cc1cc(F)c2[nH]c3c(c2c1Br)CCOC3(CC(=O)O)c1ccccc1` (centres unmarked) [Example 168, (5-bromo-8-fluoro-6-methyl-1-phenyl-1,3,4,9-tetrahydropyrano[3,4-b]indol-1-yl)acetic acid], the inhibition at 20 µM came out at 4% and the IC50 is more than 10 µM.

Turning to `Cc1cc(F)c2[nH]c3c(c2c1Br)CCOC3(CC(=O)O)c1ccc(C(=O)O)cc1` (centres unmarked) [Example 169, 4-[5-bromo-1-(carboxymethyl)-8-fluoro-6-methyl-1,3,4,9-tetrahydropyrano[3,4-b]indol-1-yl]benzoic acid], the inhibition at 20 µM was 82% and the IC50 is 0.22 µM.

`CCCCC1(CC(=O)O)OCCc2c1[nH]c1c(F)cc(C)c(C#N)c21` (centres unmarked) [Example 170, (1-butyl-5-cyano-8-fluoro-6-methyl-1,3,4,9-tetrahydropyrano[3,4-b]indol-1-yl)acetic acid]: the inhibition at 20 µM is 53% and the IC50 worked out at 1 µM.

With `Cc1cc(F)c2[nH]c3c(c2c1C#N)CCOC3(CC(=O)O)c1ccccc1` (centres unmarked) [Example 171, (5-cyano-8-fluoro-6-methyl-1-phenyl-1,3,4,9-tetrahydropyrano[3,4-b]indol-1-yl)acetic acid], the inhibition at 20 µM stood at 3% and the IC50 is more than 10 µM.

With `Cc1cc(F)c2[nH]c3c(c2c1C#N)CCOC3(CC(=O)O)c1ccc(C(=O)O)cc1` (centres unmarked) [Example 172, 4-[1-(carboxymethyl)-5-cyano-8-fluoro-6-methyl-1,3,4,9-tetrahydropyrano[3,4-b]indol-1-yl]benzoic acid], the inhibition at 20 µM is 74% and the IC50 came out at 1.7 µM.

Turning to `Cc1cc(Cl)c2[nH]c3c(c2c1Br)CCOC3(C)CC(=O)O` (centres unmarked) [Example 173, (5-bromo-8-chloro-1,6-dimethyl-1,3,4,9-tetrahydropyrano[3,4-b]indol-1-yl)acetic acid], the inhibition at 20 µM was found to be 19% and the IC50 is more than 5 µM.

Regarding `CCC1(CC(=O)O)OCCc2c1[nH]c1c(Cl)cc(C)c(Br)c21` (centres unmarked) [Example 174, (5-bromo-8-chloro-1-ethyl-6-methyl-1,3,4,9-tetrahydropyrano[3,4-b]indol-1-yl)acetic acid], the inhibition at 20 µM is 70% and the IC50 was more than 5 µM.

On to `CCCC1(CC(=O)O)OCCc2c1[nH]c1c(Cl)cc(C)c(Br)c21` (centres unmarked) [Example 175, (5-bromo-8-chloro-6-methyl-1-propyl-1,3,4,9-tetrahydropyrano[3,4-b]indol-1-yl)acetic acid], for which the inhibition at 20 µM turned out to be 84% and the IC50 amounted to 0.5 µM.

For `Cc1cc(Cl)c2[nH]c3c(c2c1Br)CCOC3(CC(=O)O)C(C)C` (centres unmarked) [Example 176, (5-bromo-8-chloro-1-isopropyl-6-methyl-1,3,4,9-tetrahydropyrano[3,4-b]indol-1-yl)acetic acid], the inhibition at 20 µM was 49% and the IC50 is more than 5 µM.

Regarding `CCCCC1(CC(=O)O)OCCc2c1[nH]c1c(Cl)cc(C)c(Br)c21` (centres unmarked) [Example 177, (5-bromo-1-butyl-8-chloro-6-methyl-1,3,4,9-tetrahydropyrano[3,4-b]indol-1-yl)acetic acid], the inhibition at 20 µM is 70% and the IC50 was determined as 4 µM.

`C/C=C/CCC1(CC(=O)O)OCCc2c1[nH]c1c(Cl)cc(C)c(Br)c21` (centres unmarked) [Example 178, {5-bromo-8-chloro-6-methyl-1-[(3E)-pent-3-enyl]-1,3,4,9-tetrahydropyrano[3,4-b]indol-1-yl}acetic acid]: the inhibition at 20 µM was less than 32% and the IC50 was more than 5 µM.

`Cc1cc(Cl)c2[nH]c3c(c2c1Br)CCOC3(CC(=O)O)c1ccccc1` (centres unmarked) [Example 179, (5-bromo-8-chloro-6-methyl-1-phenyl-1,3,4,9-tetrahydropyrano[3,4-b]indol-1-yl)acetic acid]: the inhibition at 20 µM was found to be 15% and the IC50 is more than 5 µM.

With `Cc1cc(Cl)c2[nH]c3c(c2c1Br)CCOC3(CC(=O)O)c1ccc(C(=O)O)cc1` (centres unmarked) [Example 180, 4-[5-bromo-1-(carboxymethyl)-8-chloro-6-methyl-1,3,4,9-tetrahydropyrano[3,4-b]indol-1-yl]benzoic acid], the inhibition at 20 µM was 92% and the IC50 is 0.81 µM.

Consider `Cc1cc(Cl)c2[nH]c3c(c2c1C#N)CCOC3(C)CC(=O)O` (centres unmarked) [Example 181, (8-chloro-5-cyano-1,6-dimethyl-1,3,4,9-tetrahydropyrano[3,4-b]indol-1-yl)acetic acid], for which the inhibition at 20 µM is 14% and the IC50 was more than 5 µM.

Consider `CCC1(CC(=O)O)OCCc2c1[nH]c1c(Cl)cc(C)c(C#N)c21` (centres unmarked) [Example 182, (8-chloro-5-cyano-1-ethyl-6-methyl-1,3,4,9-tetrahydropyrano[3,4-b]indol-1-yl)acetic acid], for which the inhibition at 20 µM was 55% and the IC50 was more than 5 µM.

Turning to `CCCC1(CC(=O)O)OCCc2c1[nH]c1c(Cl)cc(C)c(C#N)c21` (centres unmarked) [Example 183, (8-chloro-5-cyano-6-methyl-1-propyl-1,3,4,9-tetrahydropyrano[3,4-b]indol-1-yl)acetic acid], the inhibition at 20 µM turned out to be 88% and the IC50 worked out at 0.59 µM.

Turning to `Cc1cc(Cl)c2[nH]c3c(c2c1C#N)CCOC3(CC(=O)O)C(C)C` (centres unmarked) [Example 184, (8-chloro-5-cyano-1-isopropyl-6-methyl-1,3,4,9-tetrahydropyrano[3,4-b]indol-1-yl)acetic acid], the inhibition at 20 µM stood at 39% and the IC50 is more than 5 µM.

In the case of `CCCCC1(CC(=O)O)OCCc2c1[nH]c1c(Cl)cc(C)c(C#N)c21` (centres unmarked) [Example 185, (1-butyl-8-chloro-5-cyano-6-methyl-1,3,4,9-tetrahydropyrano[3,4-b]indol-1-yl)acetic acid], the inhibition at 20 µM came to 69% and the IC50 was 4 µM.

As for `C/C=C/CCC1(CC(=O)O)OCCc2c1[nH]c1c(Cl)cc(C)c(C#N)c21` (centres unmarked) [Example 186, {8-chloro-5-cyano-6-methyl-1-[(3E)-pent-3-enyl]-1,3,4,9-tetrahydropyrano[3,4-b]indol-1-yl}acetic acid], the inhibition at 20 µM was determined as 2% and the IC50 was more than 5 µM.

Regarding `Cc1cc(Cl)c2[nH]c3c(c2c1C#N)CCOC3(CC(=O)O)c1ccccc1` (centres unmarked) [Example 187, (8-chloro-5-cyano-6-methyl-1-phenyl-1,3,4,9-tetrahydropyrano[3,4-b]indol-1-yl)acetic acid], the inhibition at 20 µM came out at 61% and the IC50 was more than 5 µM.

With `Cc1cc(Cl)c2[nH]c3c(c2c1C#N)CCOC3(CC(=O)O)c1ccc(C(=O)O)cc1` (centres unmarked) [Example 188, 4-[1-(carboxymethyl)-8-chloro-5-cyano-6-methyl-1,3,4,9-tetrahydropyrano[3,4-b]indol-1-yl]benzoic acid], the inhibition at 20 µM came out at 76% and the IC50 was more than 5 µM.

Take `CCC1(CC(=O)O)OCCc2c1[nH]c1c(F)cc(F)c(Br)c21` (centres unmarked) [Example 189, (5-bromo-1-ethyl-6,8-difluoro-1,3,4,9-tetrahydropyrano[3,4-b]indol-1-yl)acetic acid]: the inhibition at 20 µM turned out to be 74% and the IC50 was found to be 4.2 µM.

Consider `CCCC1(CC(=O)O)OCCc2c1[nH]c1c(F)cc(F)c(Br)c21` (centres unmarked) [Example 190, (5-bromo-6,8-difluoro-1-propyl-1,3,4,9-tetrahydropyrano[3,4-b]indol-1-yl)acetic acid], for which the inhibition at 20 µM worked out at 94% and the IC50 came out at 0.2 µM.

As to `CCCCC1(CC(=O)O)OCCc2c1[nH]c1c(F)cc(F)c(Br)c21` (centres unmarked) [Example 191, (5-bromo-1-butyl-6,8-difluoro-1,3,4,9-tetrahydropyrano[3,4-b]indol-1-yl)acetic acid], the inhibition at 20 µM was 93% and the IC50 was 0.4 µM.

Turning to `O=C(O)CC1(c2ccoc2)OCCc2c1[nH]c1c(F)cc(F)c(Br)c21` (centres unmarked) [Example 192, [5-bromo-6,8-difluoro-1-(3-furyl)-1,3,4,9-tetrahydropyrano[3,4-b]indol-1-yl]acetic acid], the inhibition at 20 µM turned out to be 74% and the IC50 is more than 5 µM.

`CC(C)C1(CC(=O)O)OCCc2c1[nH]c1c(F)cc(F)c(Br)c21` (centres unmarked) [Example 193, (5-bromo-6,8-difluoro-1-isopropyl-1,3,4,9-tetrahydropyrano[3,4-b]indol-1-yl)acetic acid]: the inhibition at 20 µM stood at 69% and the IC50 stood at 4.5 µM.

As to `CCC1(CC(=O)O)OCCc2c1[nH]c1c(F)cc(F)c(C#N)c21` (centres unmarked) [Example 194, (5-cyano-1-ethyl-6,8-difluoro-1,3,4,9-tetrahydropyrano[3,4-b]indol-1-yl)acetic acid], the inhibition at 20 µM was 50% and the IC50 is more than 5 µM.

The record behind these values is US7217730B2, “Method for the use of pyranoindole derivatives to treat infection with Hepatitis C virus” (Wyeth, priority 2002, dated 2007).
